Test results as given in PMC6132687, “Stem cells are the most sensitive screening tool to identify toxicity of GATA4-targeted novel small-molecule compounds” (Archives of Toxicology, 2018).

Columns and labels:
Assay type in all cases: cell-based, human
[1] = test system: hiPSCs; experiment: High-content analysis of proliferation (Ki67, BrdU, DNA) in hiPSCs; details: 24 h
Description: (§1) For proliferation studies, the cells were exposed to the test compounds for 24 h and 10 µM BrdU was added to the culture medium for the last 1 h (hiPSCs) or 24 h (hiPSC-CMs) before fixation with 4% paraformaldehyde (PFA) for 15 min at room temperature (rt). The cells were then permeabilized with 0.1% Triton X-100 for 10 min and DNA was hydrolysed with 2 M hydrochloric acid for 30 min at rt followed by neutralization with 0.1 M sodium borate (pH 8.5) for 30 min. Non-specific binding sites were blocked with 4% FBS in phosphate-buffered saline (PBS) for 45 min at rt, whereafter the cells were incubated with anti-Ki67 (1:250) and anti-BrdU (1:250) antibodies for 60 min at rt. Cells were then washed 3 × 5 min with PBS and incubated with Alexa Fluor-conjugated secondary antibodies (1:200) and DAPI (5 µg/ml) for 45 min at rt. In hiPSC-CM cultures, staining with primary antibody against α-actinin (at 1:600) was additionally used to identify myocytes. The plates were imaged and analysed with CellInsight CX5 High Content Screening Platform (Thermo Scientific) using a 10× objective (Olympus UPlanFL N 10×/0.3). For quantification, the cells were first identified based on DAPI fluorescence, which defined the nuclear area for quantifications. In hiPSC-CM cultures, non-myocytes were excluded based on absence of α-actinin staining and nuclear area. The thresholds for α-actinin fluorescence intensity and nuclear area were set manually in each experiment to allow optimal exclusion of non-myocytes. In hiPSC-CMs cultures, the data were collected only from α-actinin positive cells. The thresholds for Ki67+ and BrdU+ cells were also set manually in each experiment as described previously (Mioulane et al. [2012]) to adjust for slight variation in staining intensity.

[2] = test system: hiPSCs; experiment: High-content analysis of cell viability (MitoTracker) in hiPSCs; details: 24 h
Description: To study mitochondrial function using high-content analysis, the cells were plated and treated as in proliferation studies, except that MitoTracker Orange CMTMRos solution (400 nM) was added to the cells for the last 30 min at 37 °C. The accumulation of the MitoTracker probe used is dependent upon mitochondrial membrane potential allowing selective staining of active mitochondria. Following fixation and permeabilization, hiPSC-CMs were in addition stained with anti-α-actinin (Alexa Fluor 488) and DAPI. Cells were identified and hiPSC-CMs discriminated from non-myocytes as described above. MitoTracker intensity corresponding to active mitochondria was analysed in the perinuclear area defined by a 3-pixel ring or a 5-pixel ring around the nucleus in hiPSCs and hiPSC-CMs, respectively. The fluorescence intensity threshold was set manually in each experiment based on the assumption that 2% of control hiPSC-CMs and 5% of control hiPSCs were MitoTracker negative.

[3] = test system: caspase-3/7 activity in hiPSCs; experiment: High-content analysis of caspase-3/7 activation in hiPSCs; details: 4-h exposure
Description: To study caspase activation, the cells were exposed to the test compounds for 4 h and then incubated with 3–5 µM CellEvent™ Caspase-3/7 Green Detection Reagent solution in PBS with 5% FBS for 50 min and stained with Hoechst for 10 min at 37 °C. Cells were fixed with 4% PFA and scanned with CellInsight using the 10× objective, or alternatively, the staining solution was replaced with fresh 5% FBS in PBS followed by live cell imaging with CellInsight. Hoechst fluorescence was used to identify the cells and define the nuclear area. The intensity of green fluorescence within the nucleus was quantified as a measure of caspase 3/7 activity.

[4] = test system: hiPSC-CMs; experiment: High-content analysis of proliferation (Ki67, BrdU, DNA) in hiPSC-CMs; details: 24 h; for average intensity of nuclear Ki67 staining / increase in the percentage of Ki67+ cells compared to DMSO: 30 µM
Description: as §1

## CCN(CC)c1ccc(NC(=O)c2c(C)noc2-c2cc(C)on2)cc1 [3i-1047]
[1]; 1 or 10 µM
  corresponding average staining intensities (Ki67, BrdU, DNA): no effect
  percentage of BrdU+ cells: no effect
  percentage of Ki67+ cells: no effect
  percentage of high DNA cells: no effect
[2]
  effect on MitoTracker staining: did not affect MitoTracker staining
[3]
  effect on caspase-3/7 activity: no effect
[4]; hiPSC-CMs
  average intensity of nuclear Ki67 staining: substantial increases
  increase in the percentage of Ki67+ cells compared to DMSO: 1.5 fold
  average intensity of nuclear BrdU staining: no effect
  average total intensity of DNA staining: neither 3i-1000 nor 3i-1047 caused significant changes
  percentage of BrdU+ cells: no effect
  percentage of cells with high total intensity of DNA staining: neither 3i-1000 nor 3i-1047 caused significant changes

## CCN(CC)c1ccc(NC(=O)c2c(-c3ccccc3)noc2C)cc1 [3i-1000]
[1]; 1 µM
  proportion of BrdU-positive cells: not at 1 µM
  proportion of Ki67 positive cells: not at 1 µM
[1]; 10 µM
  proportion of BrdU-positive cells: decreased
  proportion of Ki67 positive cells: decreased
[1]
  average intensity of nuclear BrdU staining: decreased average intensity
  average intensity of nuclear Ki67 staining: decreased average intensity
  cell numbers: significantly reduced
  decrease in the average total intensity of DNA staining: 66%
[1]; P = 0.062
  decrease in cells with high total DNA staining intensity (G2 phase): 77%
[2]; 10 µM
  average MitoTracker intensity in the perinuclear area: reduced substantially
  increase in the percentage of MitoTracker negative cells as compared to DMSO: 5.7 fold
  reduction of hiPSC cell numbers: 98%
[3]; vs DMSO
  increase in cells positive for the fluorescent caspase reporter: 3.2 fold
[4]; P = 0.233
  decrease in BrdU+ hiPSC-CMs as compared to DMSO: 43%
[4]; hiPSC-CMs
  average intensity of nuclear Ki67 staining: substantial increases
  increase in the percentage of Ki67+ cells compared to DMSO: 1.7 fold
  average intensity of nuclear BrdU staining: tendency for 3i-1000 to induce a decrease
  average total intensity of DNA staining: neither 3i-1000 nor 3i-1047 caused significant changes
  percentage of cells with high total intensity of DNA staining: neither 3i-1000 nor 3i-1047 caused significant changes
